{"source": "paper PMC11421834", "about": "(European journal of medicinal chemistry, 2024)", "data": [{"system": "over 400 kinases", "assay": "KinomeSCAN kinome profiling at 1 μM", "assay_type": "binding", "details": "KinomeSCAN at 1 μM across over 400 kinases", "values": [{"molecule": "COc1ccc2c(c1)/C(=C/c1cnc[nH]1)C(=O)N2", "note": "[Compound 1, (3Z)-3-[(1H-imidazole-5-yl)methylidene]-5-methoxy-2,3-dihydro-1H-indol-2-one]", ">90: Number of kinases inhibited above 90%": 15}, {"molecule": "CC(=O)c1ccc2c(c1)/C(=C/c1ccc[nH]1)C(=O)N2", "note": "[Compound 27, (3Z)-5-acetyl-3-(1H-pyrrol-2-ylmethylidene)-2,3-dihydro-1H-indol-2-one]", ">90: Number of kinases inhibited above 90%": 62}, {"molecule": "O=C1Nc2ccc(C(=O)c3ccccc3)cc2/C1=C/c1cnc[nH]1", "note": "[Compound 44, (3Z)-5-benzoyl-3-(1H-imidazole-5-ylmethylidene)-2,3-dihydro-1H-indol-2-one]", ">90: Number of kinases inhibited above 90%": 15}, {"molecule": "O=C1Nc2ccc(NC(=O)c3ccccc3)cc2/C1=C/c1ccc[nH]1", "note": "[Compound 72, N-[(3Z)-2-oxo-3-(1H-pyrrol-2-ylmethylidene)-2,3-dihydro-1H-indol-5-yl]benzamide]", ">90: Number of kinases inhibited above 90%": 10}, {"molecule": "O=C1Nc2ccc(NC(=O)c3ccccc3)cc2/C1=C/c1cnc[nH]1", "note": "[Compound 73, N-[(3Z)-3-(1H-imidazole-5-ylmethylidene)-2-oxo-2,3-dihydro-1H-indol-5-yl]benzamide]", ">90: Number of kinases inhibited above 90%": 9}, {"molecule": "O=C1Nc2ccc(NC(=O)c3ccccc3)cc2/C1=C/c1ncc[nH]1", "note": "[Compound 74, N-[(3Z)-3-(1H-imidazole-2-ylmethylidene)-2-oxo-2,3-dihydro-1H-indol-5-yl]benzamide]", ">90: Number of kinases inhibited above 90%": 11}, {"molecule": "COc1ccccc1C(=O)Nc1ccc2c(c1)/C(=C/c1ncc[nH]1)C(=O)N2", "note": "[Compound 97, N-[(3Z)-3-(1H-imidazole-2-ylmethylidene)-2-oxo-2,3-dihydro-1H-indol-5-yl]-2-methoxybenzamide]", ">90: Number of kinases inhibited above 90%": 7}, {"molecule": "O=C1Cc2cc(NC(=O)c3cc4sccc4s3)ccc2N1", "note": "[Compound 111]", ">90: Number of kinases inhibited above 90%": 15}, {"molecule": "Cc1nc[nH]c1/C=C1\\C(=O)Nc2ccc(NC(=O)c3ccccc3)cc21", "note": "[Compound 128, N-[(3Z)-3-[(4-methyl-1H-imidazole-5-yl)methylidene]-2-oxo-2,3-dihydro-1H-indol-5-yl]benzamide]", ">90: Number of kinases inhibited above 90%": 11}]}, {"system": "over 400 kinases", "assay": "KinomeSCAN kinome profiling at 1 μM", "assay_type": "binding", "details": "KinomeSCAN at 1 μM, selectivity score", "values": [{"molecule": "CC(=O)c1ccc2c(c1)/C(=C/c1ccc[nH]1)C(=O)N2", "note": "[Compound 27, (3Z)-5-acetyl-3-(1H-pyrrol-2-ylmethylidene)-2,3-dihydro-1H-indol-2-one]", "S(10)": 0.154}]}, {"target": "T1, FLT3 (Homo sapiens, UniProt P36888)", "T1 sequence (P36888 27-993)": "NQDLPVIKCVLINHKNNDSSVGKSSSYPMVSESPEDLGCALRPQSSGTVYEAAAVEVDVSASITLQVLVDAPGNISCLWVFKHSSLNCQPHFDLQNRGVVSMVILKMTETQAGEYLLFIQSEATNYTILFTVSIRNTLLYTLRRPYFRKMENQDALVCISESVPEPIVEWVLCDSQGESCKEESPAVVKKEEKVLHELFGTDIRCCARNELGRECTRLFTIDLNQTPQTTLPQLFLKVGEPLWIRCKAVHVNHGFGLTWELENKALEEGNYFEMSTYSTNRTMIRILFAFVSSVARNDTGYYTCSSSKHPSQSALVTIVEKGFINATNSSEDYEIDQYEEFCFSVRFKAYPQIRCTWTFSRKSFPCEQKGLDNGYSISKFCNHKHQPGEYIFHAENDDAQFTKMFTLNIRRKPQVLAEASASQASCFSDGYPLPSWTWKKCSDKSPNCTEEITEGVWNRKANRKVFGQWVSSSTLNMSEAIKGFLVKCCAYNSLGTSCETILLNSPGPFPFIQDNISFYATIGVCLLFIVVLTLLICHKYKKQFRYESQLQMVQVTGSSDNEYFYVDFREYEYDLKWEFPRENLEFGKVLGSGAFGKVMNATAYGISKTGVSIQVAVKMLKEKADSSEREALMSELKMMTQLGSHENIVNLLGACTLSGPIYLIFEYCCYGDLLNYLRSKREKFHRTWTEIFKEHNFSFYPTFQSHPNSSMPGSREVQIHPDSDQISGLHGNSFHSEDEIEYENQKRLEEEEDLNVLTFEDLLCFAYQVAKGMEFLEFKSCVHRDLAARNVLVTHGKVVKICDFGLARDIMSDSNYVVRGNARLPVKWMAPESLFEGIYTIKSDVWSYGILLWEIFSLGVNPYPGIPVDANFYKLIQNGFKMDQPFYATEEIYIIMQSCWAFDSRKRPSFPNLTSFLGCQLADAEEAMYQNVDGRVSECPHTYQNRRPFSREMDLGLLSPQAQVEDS", "assay": "FLT3 enzyme assay, single concentration", "details": "read-out: FLT3 (% Inh.)", "units": {"inhibition at 0.5 µM": "%"}, "values": [{"molecule": "COc1ccsc1C(=O)Nc1ccc2c(c1)/C(=C/c1cnc[nH]1)C(=O)N2", "note": "[Compound 119, (Z)-N-(3-((1H-imidazole-5-yl)methylene)-2-oxoindolin-5-yl)-3-methoxythiophene-2-carboxamide]", "inhibition at 0.5 µM": 80}]}, {"target": "TRKC (Homo sapiens, UniProt Q16288)", "sequence (Q16288 32-839)": "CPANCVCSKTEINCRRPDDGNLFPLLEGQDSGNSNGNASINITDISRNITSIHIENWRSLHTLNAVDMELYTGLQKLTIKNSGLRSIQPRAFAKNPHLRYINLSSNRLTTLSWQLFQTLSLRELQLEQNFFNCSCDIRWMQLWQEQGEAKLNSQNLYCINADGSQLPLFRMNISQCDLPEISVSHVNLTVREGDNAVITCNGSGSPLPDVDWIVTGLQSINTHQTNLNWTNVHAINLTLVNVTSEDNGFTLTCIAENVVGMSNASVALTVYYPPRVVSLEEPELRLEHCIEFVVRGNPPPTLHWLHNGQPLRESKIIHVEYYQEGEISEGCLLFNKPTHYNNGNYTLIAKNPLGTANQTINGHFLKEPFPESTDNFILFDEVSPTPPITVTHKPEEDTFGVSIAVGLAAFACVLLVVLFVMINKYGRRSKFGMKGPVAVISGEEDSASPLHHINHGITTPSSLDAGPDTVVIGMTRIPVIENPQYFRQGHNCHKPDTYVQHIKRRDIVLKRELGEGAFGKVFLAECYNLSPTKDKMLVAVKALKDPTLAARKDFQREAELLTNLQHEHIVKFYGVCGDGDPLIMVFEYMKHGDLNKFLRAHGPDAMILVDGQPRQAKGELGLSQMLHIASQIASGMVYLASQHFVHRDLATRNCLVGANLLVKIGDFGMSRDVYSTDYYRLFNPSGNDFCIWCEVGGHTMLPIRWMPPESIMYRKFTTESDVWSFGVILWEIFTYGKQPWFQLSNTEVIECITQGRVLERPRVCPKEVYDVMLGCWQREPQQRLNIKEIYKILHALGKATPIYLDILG", "assay": "TRKC enzyme assay, single concentration", "details": "Percentage inhibition at 0.5 μM (n = 2); ATP 10 μM", "units": {"TRKC (% Inh.)": "%"}, "values": [{"molecule": "3-ethoxy-N-[(3Z)-3-[(1H-imidazole-5-yl)methylidene]-2-oxo-2,3-dihydro-1H-indol-5-yl]thiophene-2-carboxamide [Compound 120]", "TRKC (% Inh.)": 92}, {"molecule": "(3Z)-3-(1H-pyrazol-5-ylmethylidene)-2,3-dihydro-1H-indol-2-one [Compound 8]", "TRKC (% Inh.)": 92}]}]}
